Here are results for 2 compounds from patent US20230404989A1, “GRK2 INHIBITION BY PAROXETINE AMELIORATES OSTEOARTHRITIS” (THE PENN STATE RESEARCH FOUNDATION, priority 2020, published 2023).

Assay [1] has as its system human OA cartilage. Briefly: Ex vivo cultured human OA osteochondral plugs: cAMP assay. The format is cell-based. The settings on record: paroxetine 5 μM or gallein 10 μM, 48 hrs, versus vehicle. An excerpt:
An Institutional Review Board-approved protocol was executed to collect discarded de-identified cartilage from patients. For the experiment described in FIG. 3A, we obtained acutely injured human cartilage (from patients undergoing arthroscopic surgery 4 weeks following meniscal injury, N=6) and OA cartilage (from patients undergoing arthroplasty, N=6). Normal controls were obtained from amputees' knees (N=6). Cartilage was fixed in formalin then processed and embedded in paraffin, 5-μm sections were used for immunofluorescence (IF) staining. For the experiment described in FIG. 7, OA osteochondral tissue was collected from patients undergoing total knee arthroplasty. Osteochondral plugs (8-mm diameter) were obtained and bone was flushed with saline solution to remove all bone marrow and blood cells. […] Gas activity was measured by quantifying cAMP content in cartilage pooled from 3 mice. […] Frozen cartilage was pulverized using 500 μL lysis buffer as we have previously described (H. K. Le Bleu, Anal Biochem, 518, 134-138 (2017)). cAMP content was quantified using the Cyclic AMP XP Assay kit (Cell Signaling, #4339) and following manufacturer's protocol, with 0.5 mM IBMX added to the lysis buffer to prevent phosphodiesterase mediated cAMP degradation during the extraction process. cAMP levels in different groups were normalized to that of sham mice or the vehicle treated human cartilage.
Background: cAMP levels reflect the balance of adenylyl cyclase and phosphodiesterase activity.

Assay [2] relates to ADAMTS5, MMP13, Aggrecan Neo, aggrecan in tibial articular cartilage. Description: IF staining of tibial articular cartilage of drug-treated DMM mice. Format: in vivo, mouse. The settings on record: for aggrecan expression (IF staining, whole tibial articular surface): daily ip week 8 to 12, versus vehicle; for ADAMTS5 expression (IF staining, uncalcified cartilage) / Aggrecan Neo expression (IF staining, uncalcified cartilage) / MMP13 expression (IF staining, uncalcified cartilage): daily treatment week 8 to 12. As for the experimental part:
Drug treatment studies: In twelve-week old male wild type C57BL/6 mice that received DMM surgeries, vehicle (PBS), paroxetine (5 mg/kg/day), fluoxetine (5 mg/kg/day), gallein (10 mg/kg/day) or indomethacin (2.5 mg/kg/day) were administered daily by ip injection. Drug treatment was initiated 8 weeks following DMM to determine the role of GRK2 signaling in the progression of OA. Paraffin sections were deparaffinized in three changes of xylene for five minutes each, rehydrated in ethanol (two changes of 100% ethanol, followed by two changes of 95% ethanol, followed by one change of 70% ethanol) and rinsed twice in deionized water. Antigen retrieval was performed for 30 minutes at 37° C. using 0.4% pepsin (Sigma P-7000) in 0.1M hydrochloric acid (HCl) and was followed by permeabilization for 30 minutes at room temperature using Triton X in tris buffered saline (TBS). Sections were then blocked for 1 hour at room temperature in 10% normal goat serum in 1×TBS. Tissue sections were incubated overnight at 4° C. with the rabbit anti-mouse primary antibody specific for the target protein (detailed in Table 1). Following three 5-minute washes in 1×TBS, slides were incubated for 1 hour at room temperature with biotinylated goat anti-rabbit secondary antibody (Life Technologies, Waltham, MA, USA), washed again with 3 changes of 1×TBS and incubated for 1 hour at room temperature with Alexa fluor 647 Streptavidin. Finally, slides were washed with three changes of 1×TBS for 5 minutes each, followed by one wash with 1×TBS with tween 20 (TBST), and a final 5-minute wash in 1×TBS. Mounting and nuclear staining was performed using ProLong™ Gold antifade reagent with DAPI (Invitrogen, Waltham, MA, USA).

The test system of assay [3] is DMM mice. Description: Anterior femoral synovial membrane thickness in DMM mice. The format is in vivo, mouse. The settings on record: daily ip week 8 to 12, versus vehicle. The procedure:
Drug treatment studies: In twelve-week old male wild type C57BL/6 mice that received DMM surgeries, vehicle (PBS), paroxetine (5 mg/kg/day), fluoxetine (5 mg/kg/day), gallein (10 mg/kg/day) or indomethacin (2.5 mg/kg/day) were administered daily by ip injection. Drug treatment was initiated 8 weeks following DMM to determine the role of GRK2 signaling in the progression of OA. Using Safranin-O/Fast Green-stained sections, the OsteoMetrics system was used to quantify the above parameters on three sections from representative levels (50 μm apart) of the medial compartment of the joint for each sample. Live images of the center of the knee joint were collected through an Olympus microscope (10× objective) outfitted with a camera, a stylus was used to trace the regions of interest (ROIs). A blinded observer quantified uncalcified articular cartilage area, total chondrocyte number and matrix-producing chondrocyte number using the built-in area calculation algorithms and quantification functions of the OsteoMeasure® system. […] The calcified cartilage was determined with a line drawn along the tide mark, which is the naturally occurring line separating the calcified and uncalcified regions of the articular cartilage. A second line was drawn at the chondro-osseous junction where the calcified cartilage meets the subchondral bone. The uncalcified cartilage area was determined by subtracting the calcified cartilage area from the total area of cartilage. Total chondrocyte number and matrix-producing chondrocyte number were counted within the uncalcified cartilage region using count functions within the histomorphometry system. Matrix-producing chondrocytes were counted based on the region of Safranin-O staining within the extracellular matrix surrounding the articular chondrocyte, indicating anabolic signaling to maintain matrix homeostasis. Similarly, the anterior femoral synovial thickness was measured using OsteoMeasure® software. Synovial membrane thickness extending from anterior horn of the medial meniscus to the femur was determined by drawing a line from the inner insertion point on the femur towards the attachment on the meniscus. A second line was drawn from the outer insertion of the femur towards the attachment to the meniscus. The synovial thickness was calculated by dividing total synovial area by synovial perimeter.

Take `O=C1OC2(c3ccccc31)c1ccc(O)c(O)c1Oc1c2ccc(O)c1O` [gallein]: in assay [1], the cAMP production entry was “significant increase”. Moreover, in assay [2], the “aggrecan expression (IF staining, whole tibial articular surface)” value is on record as “enhanced”; the “ADAMTS5 expression (IF staining, uncalcified cartilage)” value is recorded as “significantly decreased”; the “Aggrecan Neo expression (IF staining, uncalcified cartilage)” value is listed as “significantly decreased”; the “MMP13 expression (IF staining, uncalcified cartilage)” value is recorded as “significantly decreased”. Besides, in assay [3], the synovial membrane thickness result was “as effective as indomethacin”.

For `Fc1ccc([C@@H]2CCNC[C@H]2COc2ccc3c(c2)OCO3)cc1` [paroxetine], the cAMP production entry in assay [1] was “significant increase”. For the same compound, in assay [2], the “aggrecan expression (IF staining, whole tibial articular surface)” value is on record as “enhanced”; the “ADAMTS5 expression (IF staining, uncalcified cartilage)” value is “significantly decreased”; the “Aggrecan Neo expression (IF staining, uncalcified cartilage)” value is on record as “significantly decreased”; the “MMP13 expression (IF staining, uncalcified cartilage)” value is on record as “significantly decreased”. Moreover, in assay [3], the synovial membrane thickness result is recorded as “as effective as indomethacin”.
